In ChEMBL document CHEMBL5634141 (Eur J Med Chem, 2023):
The source made the active and inactive calls. The rule behind the calls is not given here.

Legend:
[1] = tested on: von Hippel-Lindau disease tumor suppressor/GTPase KRas (Homo sapiens), P01116+P40337 [G12C]; test: PROTAC activity at VHL/KRAS G12C mutant in human MIA PaCa-2 cells assessed as induction of protein degradation at 300 nM incubated for 6 hrs by Western blotting analysis relative to control; format: cell-based
[2] = tested on: von Hippel-Lindau disease tumor suppressor/GTPase KRas (Homo sapiens), P01116+P40337 [G12C]; test: PROTAC activity at VHL/KRAS G12C mutant in human MIA PaCa-2 cells assessed as inhibition of ERK phosphorylation by Western blotting analysis; format: cell-based
NCI-H358 [3] = test: Induction of apoptosis in human NCI-H358 cells assessed as early apoptotic cells at 30 nM incubated for 48 hrs by Annexin V-FITC staining based flow cytometry analysis (reference value: 1.60 %); format: functional
NCI-H358 [4] = test: Induction of apoptosis in human NCI-H358 cells assessed as late apoptotic cells at 100 nM incubated for 48 hrs by Annexin V-FITC staining based flow cytometry analysis (reference value: 5.20 %); format: functional
NCI-H358 [5] = test: Induction of apoptosis in human NCI-H358 cells assessed as necrotic cells at 100 nM incubated for 48 hrs by Annexin V-FITC staining based flow cytometry analysis (reference value: 1.62 %); format: functional
NCI-H358 [6] = test: Induction of apoptosis in human NCI-H358 cells assessed as viable cells at 300 nM incubated for 48 hrs by Annexin V-FITC staining based flow cytometry analysis (reference value: 91.6 %); format: functional; conditions: read-out: Activity
NCI-H358 [7] = test: Induction of apoptosis in human NCI-H358 cells assessed as necrotic cells at 300 nM incubated for 48 hrs by Annexin V-FITC staining based flow cytometry analysis (reference value: 1.62 %); format: functional
MIA PaCa-2 [8] = test: Induction of apoptosis in human MIA PaCa-2 cells assessed as early apoptotic cells at 100 nM incubated for 48 hrs by Annexin V-FITC staining based flow cytometry analysis (reference value: 1.55 %); format: functional
MIA PaCa-2 [9] = test: Induction of apoptosis in human MIA PaCa-2 cells assessed as late apoptotic cells at 100 nM incubated for 48 hrs by Annexin V-FITC staining based flow cytometry analysis (reference value: 5.69 %); format: functional
MIA PaCa-2 [10] = test: Induction of apoptosis in human MIA PaCa-2 cells assessed as necrotic cells at 100 nM incubated for 48 hrs by Annexin V-FITC staining based flow cytometry analysis (reference value: 1.25 %); format: functional
MIA PaCa-2 [11] = test: Antitumor activity against human MIA PaCa-2 cells xenografted in BALB/c nude mouse assessed as tumor growth inhibition at 10 mg/kg, ip measured after 8 days relative to control; format: functional; conditions: MIA PaCa-2, 192 h, time 8 day, read-out: TGI
Mus musculus = test: In vivo PROTAC activity at VHL/KRAS G12C mutant in BALB/c nude mouse xenografted with human MIA PaCa-2 cells assessed as decrease in ERK phosphorylation at 10 to 30 mg/kg, ip administered for 16 days by Western blot analysis; format: functional, organism-based; conditions: dose 10-30 mg/kg, time 16.0 day
[12] = AUC (0 to infinity) in ICR mouse at 2 mg/kg, iv measured after 24 hrs by LC-MS/MS analysis; format: ADME, organism-based; conditions: in vivo
[13] = AUC (0 to t) in ICR mouse at 30 mg/kg, ip measured after 24 hrs by LC-MS/MS analysis; format: ADME, organism-based; conditions: in vivo
[14] = AUC (0 to infinity) in ICR mouse at 30 mg/kg, ip measured after 24 hrs by LC-MS/MS analysis; format: ADME, organism-based; conditions: in vivo
[15] = tested on: von Hippel-Lindau disease tumor suppressor/GTPase KRas (Homo sapiens), P01116+P40337 [G12C]; test: PROTAC activity at VHL/KRAS G12C mutant in human MIA PaCa-2 cells assessed as induction of protein degradation at 100 nM incubated for 1 to 8 days by Western blotting analysis; format: cell-based; conditions: time 1-8 day
NCI-H358 [16] = test: Antiproliferative activity against human NCI-H358 cells expressing KRAS G12C mutant assessed as relative cell viability at 30 nM incubated for 72 hrs by CCK-8 assay; format: functional; conditions: read-out: Activity
NCI-H23 [17] = test: Antiproliferative activity against human NCI-H23 cells expressing KRAS G12C mutant assessed as relative cell viability at 30 nM incubated for 72 hrs by CCK-8 assay; format: functional; conditions: read-out: Activity
NCI-H23 [18] = test: Antiproliferative activity against human NCI-H23 cells expressing KRAS G12C mutant assessed as relative cell viability at 30 nM incubated for 72 hrs in presence of infigratinib by CCK-8 assay; format: functional; conditions: read-out: Activity
Calu-1 [19] = test: Antiproliferative activity against human Calu-1 cells expressing KRAS G12C mutant assessed as relative cell viability at 30 nM incubated for 72 hrs in presence of selumetinib by CCK-8 assay; format: functional; conditions: read-out: Activity
SW837 = test: Antiproliferative activity against human SW837 cells expressing KRAS G12C mutant assessed as relative cell viability at 30 nM incubated for 72 hrs in presence of selumetinib by CCK-8 assay; format: functional; conditions: read-out: Activity
NCI-H23 [20] = test: Antiproliferative activity against human NCI-H23 cells expressing KRAS G12C mutant assessed as relative cell viability at 30 nM incubated for 72 hrs in presence of daclolisib by CCK-8 assay; format: functional; conditions: read-out: Activity
Calu-1 [21] = test: Antiproliferative activity against human Calu-1 cells expressing KRAS G12C mutant assessed as relative cell viability at 30 nM incubated for 72 hrs in presence of daclolisib by CCK-8 assay; format: functional; conditions: read-out: Activity
NCI-H358 [22] = test: Synergistic antiproliferative activity against human NCI-H358 cells expressing KRAS G12C mutant assessed as combination index at 30 nM incubated for 72 hrs in presence of crizotinib by CCK-8 assay; format: functional
NCI-H358 [23] = test: Synergistic antiproliferative activity against human NCI-H358 cells expressing KRAS G12C mutant assessed as combination index at 30 nM incubated for 72 hrs in presence of selumetinib by CCK-8 assay; format: functional
MIA PaCa-2 [24] = test: Antiproliferative activity against human MIA PaCa-2 cells expressing KRAS G12C mutant assessed as reduction of cell growth by measuring fold decrease in IC50 incubated for 72 hrs in presence of AZD4573 by CCK-8 assay; format: functional
NCI-H358 [25] = test: Synergistic antiproliferative activity against human NCI-H358 cells expressing KRAS G12C mutant assessed as combination index incubated for 72 hrs in presence of SHP099 by CCK-8 assay; format: functional
NCI-H358 [26] = test: Synergistic antiproliferative activity against human NCI-H358 cells expressing KRAS G12C mutant assessed as combination index incubated for 72 hrs in presence of linsitinib by CCK-8 assay; format: functional
NCI-H358 [27] = test: Inhibition of colony formation in human NCI-H358 cells expressing KRAS G12C mutant assessed as reduction in cell number at 30 nM incubated for 14 days in presence of SHP099 by crystal violet staining based analysis; format: functional; conditions: time 14.0 day
[28] = tested on: von Hippel-Lindau disease tumor suppressor/GTPase KRas (Homo sapiens), P01116+P40337 [G12C]; test: PROTAC activity at VHL/KRAS G12C mutant in human NCI-H358 cells assessed as induction of protein degradation at 100 nM incubated for 48 hrs followed by compound washout and measured after 48 hrs by Western blotting analysis; format: cell-based
[29] = tested on: von Hippel-Lindau disease tumor suppressor/GTPase KRas (Homo sapiens), P01116+P40337 [G12C]; test: PROTAC activity at VHL/KRAS G12C mutant in human MIA PaCa-2 cells assessed as induction of protein degradation at 100 nM incubated for 48 hrs followed by compound washout and measured after 48 hrs by Western blotting analysis; format: cell-based

In the case of C=CC(=O)N1CCN(c2nc(=O)n(-c3c(C)ccnc3C(C)C)c3nc(-c4c(F)cccc4OCC4CCN(CCCC(=O)N[C@H](C(=O)N5C[C@H](O)C[C@H]5C(=O)NCc5ccc(-c6scnc6C)cc5)C(C)(C)C)CC4)c(F)cc23)[C@@H](C)C1, the Activity [1] is reported as 50%, the Activity [2] is reported as “Dose-Dependent Effect” and the Activity (NCI-H358 [3]) is reported as 3.48%. The Activity (NCI-H358 [4]) was 10%, the Activity (NCI-H358 [5]) was 1.12% and the viability at 0.3 µM (NCI-H358 [6]) was 79.6%. For the same compound, the Activity (NCI-H358 [7]) was 1.7%, the Activity (MIA PaCa-2 [8]) was 6.73% and the Activity (MIA PaCa-2 [9]) was 13.4%. The Activity (MIA PaCa-2 [10]) was 4.09%, the inhibition in vivo at 10 mg/kg (MIA PaCa-2 [11]) was 93.4% and the Activity (Mus musculus) was “Active”. For the same compound, the AUC [12] was 404 ng·h/mL, the AUC(0-t) at 24 h [13] was 21000 ng·h/mL and the AUC(0-inf) [14] was 21100 ng·h/mL. The Activity [15] was “Active”, the viability at 0.03 µM (NCI-H358 [16]) was 0.83% and the viability at 0.03 µM (NCI-H23 [17]) was 0.85%. It also gave a viability at 0.03 µM (NCI-H23 [18]) of 0.41%, a viability at 0.03 µM (Calu-1 [19]) of 0.13% and a viability at 0.03 µM (SW837) of 0.2%. For the same compound, the viability at 0.03 µM (NCI-H23 [20]) was 0.23%, the viability at 0.03 µM (Calu-1 [21]) was 0.12% and the CI (NCI-H358 [22]) was <1. The CI (NCI-H358 [23]) was <1, the “fold change (FC)” value (MIA PaCa-2 [24]) was ~9 and the CI (NCI-H358 [25]) was <1. The CI (NCI-H358 [26]) was <1, the inhibition (NCI-H358 [27]) was “Active” and the Activity [28] was “inactive”. The Activity [29] was “inactive”.
